Assay: Stability of the compound assessed as half life in 1M sodium acetate buffer of pH 4.5 at 37 degC
Format: physicochemical

half-life [min] | SMILES
23 | COC(=O)[C@H](CCCCNC(=O)Cc1ccc(N=C2C(=O)N(Cc3ccc(OC)cc3)c3c(Br)cc(Br)cc32)cc1)NC(C)=O (mixture of isomers)
33 | COC(=O)[C@H](CCCCNC(=O)Cc1cccc(N=C2C(=O)N(Cc3ccc(OC)cc3)c3c(Br)cc(Br)cc32)c1)NC(C)=O (mixture of isomers)

Source: ChEMBL document CHEMBL1681682, “Synthesis and hydrolytic evaluation of acid-labile imine-linked cytotoxic isatin model systems” (Bioorg Med Chem, 2011)
